The text below walks through data of ChEMBL document CHEMBL1130772, “New nonsteroidal androgen receptor modulators based on 4-(trifluoromethyl)-2(1H)-pyrrolidino[3,2-g] quinolinone” (Bioorg Med Chem Lett, 1998).

By IC50 is commonly meant the concentration that gives 50% inhibition. Read a low IC50 as higher potency. One may read the Ki as the dissociation constant of the complex between target and ligand, obtained from inhibition or displacement. A lower Ki goes with a stronger hold on the target.

Some results are limits rather than exact numbers.

The first experiment has as its target T1, Glucocorticoid receptor (Homo sapiens) (UniProt P04150).
T1 sequence (whole entry): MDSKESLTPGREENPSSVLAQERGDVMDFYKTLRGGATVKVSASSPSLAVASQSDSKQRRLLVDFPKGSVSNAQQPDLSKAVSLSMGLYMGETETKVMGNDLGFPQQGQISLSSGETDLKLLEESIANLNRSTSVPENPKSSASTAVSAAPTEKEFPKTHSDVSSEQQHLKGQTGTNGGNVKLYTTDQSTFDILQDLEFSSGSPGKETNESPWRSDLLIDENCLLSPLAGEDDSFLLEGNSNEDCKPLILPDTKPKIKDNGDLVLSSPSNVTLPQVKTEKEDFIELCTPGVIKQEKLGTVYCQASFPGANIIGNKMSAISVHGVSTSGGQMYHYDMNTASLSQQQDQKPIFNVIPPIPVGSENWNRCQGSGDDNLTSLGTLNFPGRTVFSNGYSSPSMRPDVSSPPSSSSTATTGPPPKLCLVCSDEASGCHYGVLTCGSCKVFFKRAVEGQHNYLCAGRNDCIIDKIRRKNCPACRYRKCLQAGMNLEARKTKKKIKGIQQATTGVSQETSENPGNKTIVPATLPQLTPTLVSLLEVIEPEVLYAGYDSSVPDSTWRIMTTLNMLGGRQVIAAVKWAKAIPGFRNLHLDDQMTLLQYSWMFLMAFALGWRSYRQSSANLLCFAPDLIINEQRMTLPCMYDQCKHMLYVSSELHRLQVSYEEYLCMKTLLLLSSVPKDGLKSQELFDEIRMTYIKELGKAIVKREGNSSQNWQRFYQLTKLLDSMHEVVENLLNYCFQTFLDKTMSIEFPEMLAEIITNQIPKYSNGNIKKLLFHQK
Description: Antagonistic activity against Glucocorticoid receptor in co-transfected CV-1 cell.
Details: not given; call rule not given here
Type of experiment: functional, cell-based.
The compound `C[C@]12CCCC[C@H]1Nc1cc3nc(O)cc(C(F)(F)F)c3cc12` yielded an Efficacy of 43%.

The target in another experiment is T2, Androgen receptor (Homo sapiens, UniProt P10275).
T2 sequence (P10275 whole entry): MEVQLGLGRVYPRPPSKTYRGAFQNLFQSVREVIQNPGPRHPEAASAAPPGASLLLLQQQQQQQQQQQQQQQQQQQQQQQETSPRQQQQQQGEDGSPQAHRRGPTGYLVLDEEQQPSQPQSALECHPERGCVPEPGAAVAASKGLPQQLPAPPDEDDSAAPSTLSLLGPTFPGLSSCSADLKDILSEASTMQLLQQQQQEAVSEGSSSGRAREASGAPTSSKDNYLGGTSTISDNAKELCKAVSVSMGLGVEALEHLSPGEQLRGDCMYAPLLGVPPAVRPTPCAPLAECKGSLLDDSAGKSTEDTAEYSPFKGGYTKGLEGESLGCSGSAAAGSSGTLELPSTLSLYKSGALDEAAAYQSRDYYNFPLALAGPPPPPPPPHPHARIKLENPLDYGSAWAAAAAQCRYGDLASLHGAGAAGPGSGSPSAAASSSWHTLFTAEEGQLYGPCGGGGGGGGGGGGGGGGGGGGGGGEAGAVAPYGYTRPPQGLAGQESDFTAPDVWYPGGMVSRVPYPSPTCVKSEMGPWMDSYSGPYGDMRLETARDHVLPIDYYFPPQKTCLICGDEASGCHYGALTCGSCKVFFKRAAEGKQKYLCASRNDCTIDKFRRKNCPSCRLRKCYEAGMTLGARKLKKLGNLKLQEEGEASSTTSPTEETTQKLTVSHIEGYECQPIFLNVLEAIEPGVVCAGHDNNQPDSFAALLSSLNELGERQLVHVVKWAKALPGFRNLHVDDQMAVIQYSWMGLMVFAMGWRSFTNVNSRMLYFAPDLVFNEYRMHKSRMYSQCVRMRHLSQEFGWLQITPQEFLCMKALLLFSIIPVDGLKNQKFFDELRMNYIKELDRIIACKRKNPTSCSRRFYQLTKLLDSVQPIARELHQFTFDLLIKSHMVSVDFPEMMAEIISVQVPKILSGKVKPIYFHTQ
Nature of the experiment: Antagonistic activity (IC50) against human androgen receptor (hAR) in co-transfected CV-1 cell. Format: functional, cell-based.
Details: not given
As to `C[C@]12CCCC[C@H]1Nc1cc3nc(O)cc(C(F)(F)F)c3cc12`, the IC50 entry is recorded as “Not Active”.

The target in the next experiment is T2, Androgen receptor. Conditions: cv-1.
Description: Agonistic activity against human androgen receptor (hAR) in co-transfected CV-1 cell
Take `CN1CCc2cc3c(C(F)(F)F)cc(=O)n(C)c3cc21`: the EC50 result is listed as “Not Active”.

For `CN1c2cc3c(cc2[C@H]2CCCC(C)(C)[C@H]21)c(C(F)(F)F)cc(=O)n3C`, the EC50 entry is recorded as “Not Active”.

For `CC1(C)CCC[C@@H]2c3cc4c(C(F)(F)F)cc(O)nc4cc3N[C@@H]21`, the EC50 entry was “Not Active”.

Turning to `Cn1c(=O)cc(C(F)(F)F)c2cc3c(cc21)NCC3`, the EC50 result was “Not Active”.

Another experiment addresses T2, Androgen receptor.
Details: not given
In turn, `CN1CCc2cc3c(C(F)(F)F)cc(=O)n(C)c3cc21` registered an IC50 of 197 nM.

`CN1c2cc3c(cc2[C@H]2CCCC(C)(C)[C@H]21)c(C(F)(F)F)cc(=O)n3C` yielded an IC50 of 27 nM.

In turn, `CC1(C)CCC[C@@H]2c3cc4c(C(F)(F)F)cc(O)nc4cc3N[C@@H]21` came in with an IC50 of 26 nM.

`Cn1c(=O)cc(C(F)(F)F)c2cc3c(cc21)NCC3` had an IC50 of 56 nM.

Another experiment has as its target T3, Progesterone receptor (Homo sapiens) (UniProt P06401).
T3 sequence (whole entry): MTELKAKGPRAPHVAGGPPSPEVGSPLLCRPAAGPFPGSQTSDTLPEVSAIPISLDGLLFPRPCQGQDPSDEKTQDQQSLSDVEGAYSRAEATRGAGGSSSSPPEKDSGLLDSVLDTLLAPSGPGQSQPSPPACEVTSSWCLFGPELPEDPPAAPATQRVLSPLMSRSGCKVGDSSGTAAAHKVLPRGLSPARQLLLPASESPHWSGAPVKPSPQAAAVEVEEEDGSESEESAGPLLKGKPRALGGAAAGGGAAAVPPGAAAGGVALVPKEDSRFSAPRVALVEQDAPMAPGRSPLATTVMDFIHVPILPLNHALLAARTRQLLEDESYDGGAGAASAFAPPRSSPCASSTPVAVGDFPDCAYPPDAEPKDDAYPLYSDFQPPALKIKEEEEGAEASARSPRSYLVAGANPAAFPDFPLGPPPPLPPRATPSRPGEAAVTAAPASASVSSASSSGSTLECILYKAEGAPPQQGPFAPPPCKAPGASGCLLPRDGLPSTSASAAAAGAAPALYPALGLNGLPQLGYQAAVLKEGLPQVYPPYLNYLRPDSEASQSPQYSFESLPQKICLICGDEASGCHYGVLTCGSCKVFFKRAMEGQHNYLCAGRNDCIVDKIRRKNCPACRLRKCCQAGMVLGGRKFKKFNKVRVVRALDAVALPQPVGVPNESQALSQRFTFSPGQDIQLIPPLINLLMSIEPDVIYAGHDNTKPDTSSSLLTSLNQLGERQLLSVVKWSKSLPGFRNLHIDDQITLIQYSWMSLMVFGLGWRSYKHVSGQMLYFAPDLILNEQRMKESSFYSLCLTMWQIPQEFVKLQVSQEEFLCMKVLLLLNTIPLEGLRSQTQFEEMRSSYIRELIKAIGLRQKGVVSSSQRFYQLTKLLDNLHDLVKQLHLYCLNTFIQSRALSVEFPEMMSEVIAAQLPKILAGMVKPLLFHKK
Description: Antagonistic activity against hPR in co-transfected CV-1 cell.
Details: not given
Format: functional, cell-based.
In turn, `C[C@]12CCCC[C@H]1Nc1cc3nc(O)cc(C(F)(F)F)c3cc12` had an Efficacy of 96%.

The next experiment has as its target T4, Mineralocorticoid receptor (Homo sapiens) (UniProt P08235).
T4 sequence (whole entry): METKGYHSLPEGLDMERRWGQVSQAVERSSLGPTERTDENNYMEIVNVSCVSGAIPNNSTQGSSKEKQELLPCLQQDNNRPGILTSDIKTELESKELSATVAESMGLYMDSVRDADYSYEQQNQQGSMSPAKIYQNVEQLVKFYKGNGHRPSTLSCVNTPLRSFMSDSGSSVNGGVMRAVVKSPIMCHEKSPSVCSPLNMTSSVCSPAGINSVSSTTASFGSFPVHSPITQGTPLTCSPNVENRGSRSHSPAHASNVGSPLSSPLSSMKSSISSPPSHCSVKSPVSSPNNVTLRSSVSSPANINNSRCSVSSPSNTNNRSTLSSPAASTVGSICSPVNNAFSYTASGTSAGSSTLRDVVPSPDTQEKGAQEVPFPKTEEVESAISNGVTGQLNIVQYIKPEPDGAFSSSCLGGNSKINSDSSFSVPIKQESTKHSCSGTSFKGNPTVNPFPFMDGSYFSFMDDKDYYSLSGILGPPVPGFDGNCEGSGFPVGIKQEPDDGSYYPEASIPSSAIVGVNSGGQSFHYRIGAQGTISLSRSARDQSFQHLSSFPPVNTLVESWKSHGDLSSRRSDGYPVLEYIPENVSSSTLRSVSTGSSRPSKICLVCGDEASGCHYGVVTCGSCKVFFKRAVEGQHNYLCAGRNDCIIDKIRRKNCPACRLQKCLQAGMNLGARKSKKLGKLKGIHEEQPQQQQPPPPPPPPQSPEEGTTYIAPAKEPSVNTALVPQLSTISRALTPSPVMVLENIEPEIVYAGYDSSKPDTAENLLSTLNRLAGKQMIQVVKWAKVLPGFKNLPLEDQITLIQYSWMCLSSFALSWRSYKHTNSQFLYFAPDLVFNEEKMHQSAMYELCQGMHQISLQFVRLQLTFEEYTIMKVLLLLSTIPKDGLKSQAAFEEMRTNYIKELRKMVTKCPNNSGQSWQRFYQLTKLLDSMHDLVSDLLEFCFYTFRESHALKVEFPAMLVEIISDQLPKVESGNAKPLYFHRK
Description: Antagonistic activity against hMR in co-transfected CV-1 cell.
Details: not given
Type of experiment: functional, cell-based.
As for `C[C@]12CCCC[C@H]1Nc1cc3nc(O)cc(C(F)(F)F)c3cc12`, the Efficacy is 43%.

A further experiment addresses T2, Androgen receptor. Description: Binding affinity against hAR androgen receptor expressed in COS cells. Format: cell-based.
Details: not given
For `CN1CCc2cc3c(C(F)(F)F)cc(=O)n(C)c3cc21`, the affinity, expressed as Ki, was 167 nM. That is a sub-micromolar value.

In turn, `CN1c2cc3c(cc2[C@H]2CCCC(C)(C)[C@H]21)c(C(F)(F)F)cc(=O)n3C` showed a Ki of 59 nM.

In the case of `CC1(C)CCC[C@@H]2c3cc4c(C(F)(F)F)cc(O)nc4cc3N[C@@H]21`, the Ki amounted to 79 nM.

`Cn1c(=O)cc(C(F)(F)F)c2cc3c(cc21)NCC3` returned a Ki of 61 nM.

The next experiment addresses T5, Estrogen receptor (Homo sapiens, UniProt Q92731+P03372). Description: (§1) Antagonistic activity against Estrogen receptor in co-transfected CV-1 cell. Type of experiment: functional, cell-based.
Details: not given
Regarding `C[C@]12CCCC[C@H]1Nc1cc3nc(O)cc(C(F)(F)F)c3cc12`, the IC50 is above 10000 nM.

In another experiment the target is T5, Estrogen receptor. Described as §1. Format: functional, cell-based.
Details: not given
Consider `C[C@]12CCCC[C@H]1Nc1cc3nc(O)cc(C(F)(F)F)c3cc12`, for which the Efficacy is below 20%.
